The source of these data is patent publication US20160250128A1, “TARGETED CAPSULES FOR THE DELIVERY OF SKIN WHITENING AGENTS IN THE SKIN” (INFINITEC ACTIVOS, S.L., priority 2013, published 2016).

The test system of series [1] is Human melanocytes. Put plainly: Melanin determination in treated melanocytes. It counts as cell-based. Conditions: for % MELANINE CONTENT: determined as in examples 4 and 5, concentration not given. How it is done:
(§1) Day 1—Human melanocytes are rise by trypsinization and centrifuge at 1500 rpm (433×g) in an Allegra X-22R (Beckman Coulter) centrifuge during 5 minutes, and then are resuspended in 1 ml of a complete culture medium to count the number of cells. A volume of 10 μl of the cells solution was dyed with Trypan Blue colorant and the cells are counted with a hemocytometer. Then a cell solution is prepared at a concentration of 2.5×10^5 cells/ml in a complete medium and 100 μl of the cell suspension is seed in wells of 96 well plates. The plates are incubated at 37° C. in a 5% CO2 atmosphere.
Day 2—The seed cells are washed and treated with the different products in basal conditions and promelanogenic conditions. For that, the medium is removed of wells and 100 μl of the products in basal medium with 0.5% of FBS is added. Previously, the test products are solubilised in the same medium. Arbutin is solubilised in ethanol.
The products are tested at 3 different concentrations in the presence and absence of the melanogenic inductor (100 μM), i.e. isobutyl methyl-xantine (IBMX). The plates are incubated 37° C. and 5% CO2 during 5 days. The experiments are carried out using 4 wells per condition. The melanin accumulation inside the cells is monitored daily by optical microscopy.
Days 3 and 4—All treatments are renewed every 24 hours.
In order to determine the melanin content in cells treated as described in example 4, the medium is removed from each well and cells are washed with PBS 1N and incubated during 3 days at 37° C. facilitating the solubilisation of the melanin in NaOH.
Day 7—Once the solubilisation of melanin is complete, 50 μl de H2O2 MilliQ is added per well and the content is determined by absorbance using a Synergy II (Biotek Instruments Inc., Winooski, USA) at 390 nm. The mode and SD is calculated for each
The activity of several peptides of formula (II) (listed in table 3 below) to reduce melanine was determined as explained in example 5 after treating the cells as explained in example 4.

Series [2] concerns Human melanocytes. Description: Cell viability of treated melanocytes (CCK-8). Conditions: IBMX 100 μM alone, control = 100. In kind it is cell-based. The protocol:
as §1
Day 2—The seed cells are washed and treated with the different products in basal conditions and promelanogenic conditions. […]
The products are tested at 3 different concentrations in the presence and absence of the melanogenic inductor (100 μM), i.e. isobutyl methyl-xantine (IBMX). […] The melanin accumulation inside the cells is monitored daily by optical microscopy. […]
Day 5—Determination of cell viability: In order to determine de number of viable cells, 10 μl of CCK-8 (WST-8) is added in each well. The plates are incubated at 37° C. during 1 hour and the absorbance is measured at 450 nm using Synergy II multimode (Biotek Instruments Inc., Winooski, Estados Unidos). The mode and SD is calculated for each concentration using Microsoft Excel application (see FIG. 2 and table 2)

Series [3] deals with cultured melanocytes. Conditions: cited from earlier work.
In series [4] the test system is cultured cells. Conditions: cited from earlier work.
Series [5] has as its system facial hyperpigmentation. Conditions: clinical studies; cited from earlier work.
Series [6] relates to Human dermal fibroblasts. Description: Cytotoxicity assay (MTT). In kind it is cell-based. Conditions: positive control 0.1% SDS, 48 h. The protocol: (§2) Human dermal fibroblasts and human keratinocytes were used. The isolated cells were cultured in DMEM culture medium supplemented with 10% FCS and were incubated at 37° C. for maintenance treatment. Untreated cells were used as negative control. The positive control was 0.1% SDS. The microcapsules as obtained in Example 1 were tested in the DMEM culture medium at two concentrations: 0.03% and 0.3%. These weight percentages refer to the weight of the microcapsule in relation to the total weight.
(§3) Cells were seeded at 20000 cells per well in a 96-well plate. 24 hours after seeding, cells were incubated under the conditions described above. After 48 h of incubation at 37° C., the culture medium was removed and the MTT reagent was added. Cells were incubated 2 hours at 37° C. DMSO was then added and the absorbance of the formed formazan salt was measured at A 570 nm. Lower absorbance values correspond to cells with lower metabolic activity, which correlates with an increased damage and, therefore, with an increased cytotoxic effect. Thus, the amount of living cells is proportional to the amount of formazan produced.

The test system of series [7] is human keratinocytes. Description: Cytotoxicity assay (MTT). In kind it is cell-based. Conditions: positive control 0.1% SDS, 48 h. How it is done:
as §2, §3

Regarding `CC(C)Cn1c(=O)n(C)c(=O)c2[nH]cnc21` [Isobutyl methyl-xantine (IBMX), Isobutyl methyl-xantine, reference compound], the “Melanin content (%)” value in series [1] (IBMX 100 μM alone, control = 100) is on record as 174 ± 12%. In series [2], the Cell viability worked out at 90%.

Take “Palm-Ile-Ser-(d)Leu-Leu-Asp-(d)Ala-Gln-Ser-NH2 (ISLLDAQS; HELM PEPTIDE1{[CCCCCCCCCCCCCCCC(=O)[*:2]].I.S.[dL].L.D.[dA].Q.S.[am]}$$$$V2.0; SMILES CCCCCCCCCCCCCCCC(=O)N[C@H](C(=O)N[C@@H](CO)C(=O)N[C@H](CC(C)C)C(=O)N[C@@H](CC(C)C)C(=O)N[C@@H](CC(=O)O)C(=O)N[C@H](C)C(=O)N[C@@H](CCC(N)=O)C(=O)N[C@@H](CO)C(N)=O)[C@@H](C)CC) [peptide of formula (II)]”: the “% MELANINE CONTENT” value in series [1] was found to be 65%.

For the compound `C=CCCCCCCCCC(=O)N[C@@H](Cc1ccccc1)C(=O)O` [Sepiwhite, N-undecyl-10-enoyl-L-phenylalanine], in series [3], the melanin production result was “reduces melanin production in cultured melanocytes”.

For the compound “Ac-Ile-Ser-(d)Leu-Leu-Asp-(d)Ala-Gln-Ser-NH2 (ISLLDAQS; HELM PEPTIDE1{[ac].I.S.[dL].L.D.[dA].Q.S.[am]}$$$$V2.0; SMILES CC[C@H](C)[C@H](NC(C)=O)C(=O)N[C@@H](CO)C(=O)N[C@H](CC(C)C)C(=O)N[C@@H](CC(C)C)C(=O)N[C@@H](CC(=O)O)C(=O)N[C@H](C)C(=O)N[C@@H](CCC(N)=O)C(=O)N[C@@H](CO)C(N)=O) [peptide of formula (II)]”, in series [1], the “% MELANINE CONTENT” value turned out to be 68%.

With “Ac-Ile-Ser-Leu-Leu-Asp-Ala-Gln-Ser-NH2 (Ac-ISLLDAQS-NH2) [peptide of formula (II)]”, the “% MELANINE CONTENT” value in series [1] was 87%.

Turning to “Palm-Ile-Ser-Leu-Leu-Asp-Ala-Gln-Ser-NH2 (ISLLDAQS; HELM PEPTIDE1{[CCCCCCCCCCCCCCCC(=O)[*:2]].I.S.L.L.D.A.Q.S.[am]}$$$$V2.0; SMILES CCCCCCCCCCCCCCCC(=O)N[C@H](C(=O)N[C@@H](CO)C(=O)N[C@@H](CC(C)C)C(=O)N[C@@H](CC(C)C)C(=O)N[C@@H](CC(=O)O)C(=O)N[C@@H](C)C(=O)N[C@@H](CCC(N)=O)C(=O)N[C@@H](CO)C(N)=O)[C@@H](C)CC) [peptide of formula (II)]”, the “% MELANINE CONTENT” value in series [1] was 85%.

For the compound “Ac-Ile-Ser-Leu-Leu-Asp-(d)Ala-Gln-Ser-NH2 (ISLLDAQS; HELM PEPTIDE1{[ac].I.S.L.L.D.[dA].Q.S.[am]}$$$$V2.0; SMILES CC[C@H](C)[C@H](NC(C)=O)C(=O)N[C@@H](CO)C(=O)N[C@@H](CC(C)C)C(=O)N[C@@H](CC(C)C)C(=O)N[C@@H](CC(=O)O)C(=O)N[C@H](C)C(=O)N[C@@H](CCC(N)=O)C(=O)N[C@@H](CO)C(N)=O) [peptide of formula (II)]”, the “% MELANINE CONTENT” value in series [1] is listed as 80%.

Regarding `NC(=O)c1cccnc1` [Niacinamide], the melanosome transfer entry in series [4] is given as “inhibit melanosome transfer in cultured cells”. Further, in series [5], the “appearance of hyperpigmented spots” value was “reduce the appearance of hyperpigmented spots”.

For the compound “Palm-Ile-Ser-Leu-Leu-Asp-(d)Ala-Gln-Ser-NH2 (ISLLDAQS; HELM PEPTIDE1{[CCCCCCCCCCCCCCCC(=O)[*:2]].I.S.L.L.D.[dA].Q.S.[am]}$$$$V2.0; SMILES CCCCCCCCCCCCCCCC(=O)N[C@H](C(=O)N[C@@H](CO)C(=O)N[C@@H](CC(C)C)C(=O)N[C@@H](CC(C)C)C(=O)N[C@@H](CC(=O)O)C(=O)N[C@H](C)C(=O)N[C@@H](CCC(N)=O)C(=O)N[C@@H](CO)C(N)=O)[C@@H](C)CC) [peptide of formula (II)]”, the “% MELANINE CONTENT” value in series [1] is 78%.

With `CCCCCCCCCCCCOS(=O)(=O)[O-].[Na+]` [SDS], the “% cell viability” value in series [6] was 30.0%; in series [7], 13.0%.
